Laboratory results as given in the supplement of paper PMC11451515.

Legend:
Settings in all cases: 48 h
NOMO1 [1] = assay: cell viability relative to DMSO control; higher = less cytotoxic
Method in brief: (§1)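 NOMO1 or SEM (500 cells/well) or P12-Ichikawa (1000 cells/well) leukemia cells were adapted for at least four passages in each medium. They were seeded in 1536-well plates (5 μl) and pin-dosed with library compounds in DMSO over an 11-point threefold series, 47 μM to 0.79 nM. CellTiter-Glo One luminescence was read after 48 h at 37°C. Viability is the per-plate percentage relative to DMSO wells, with cell-free wells as background.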

P12-Ichikawa [2] = assay: as above
Method in brief: as §1

SEM cells [3] = assay: as above
Method in brief: as §1

NOMO1 [4] = assay: AUC of viability dose-response curve (% viability x log10 dose units); higher = less sensitive
Method in brief: (§2)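 Leukemia cells adapted to each medium (500 or 1000 cells/well, 1536-well plates) were exposed to library compounds in DMSO for 48 h at 37°C at 11 threefold doses, 47 μM to 0.79 nM. Luminescence by CellTiter-Glo One was normalised per plate to DMSO and cell-free wells, then fitted with a four-parameter log-logistic curve on log10 dose. Curves above full viability were scaled and quality-control failures removed before area under the curve was integrated by trapezoidal rule.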

P12-Ichikawa [5] = assay: as above
Method in brief: as §2

SEM cells [6] = assay: as above
Method in brief: as §2

CCOC(=O)C(C#N)C\1C2=CC(=CC=C2O\C(=C1C(=O)OCC)N)Br (stereo not drawn)
cell viability [%]
Settings | NOMO1 [1] | P12-Ichikawa [2] | SEM cells [3]
HPLM + 10% dialyzed FBS, 0.000781 µM | 113 | 100 | 93.4
HPLM + 10% dialyzed FBS, 0.00234 µM | 120 | 103 | 102
HPLM + 10% dialyzed FBS, 0.00702 µM | 110 | 108 | 117
HPLM + 10% dialyzed FBS, 0.0211 µM | 99.9 | 92.8 | 49.8
HPLM + 10% dialyzed FBS, 0.0632 µM | 114 | 103 | 113
HPLM + 10% dialyzed FBS, 0.19 µM | 104 | 103 | 99.9
HPLM + 10% dialyzed FBS, 0.569 µM | 96.1 | 99.1 | 99.5
HPLM + 10% dialyzed FBS, 1.71 µM | 107 | 104 | 105
HPLM + 10% dialyzed FBS, 5.12 µM | 117 | 105 | 95.1
HPLM + 10% dialyzed FBS, 15.4 µM | 92.4 | 94.6 | 86.1
HPLM + 10% dialyzed FBS, 46.1 µM | 97.5 | 75.7 | 63.8
RPMI 5 mM glucose + 10% FBS, 0.000781 µM | 97.8 | 104 | 113
RPMI 5 mM glucose + 10% FBS, 0.00234 µM | 90.3 | 102 | 116
RPMI 5 mM glucose + 10% FBS, 0.00702 µM | 97.5 | 106 | 114
RPMI 5 mM glucose + 10% FBS, 0.0211 µM | 87.9 | 88.5 | 44.5
RPMI 5 mM glucose + 10% FBS, 0.0632 µM | 99.3 | 106 | 116
RPMI 5 mM glucose + 10% FBS, 0.19 µM | 102 | 117 | 117
RPMI 5 mM glucose + 10% FBS, 0.569 µM | 107 | 103 | 113
RPMI 5 mM glucose + 10% FBS, 1.71 µM | 91.5 | 102 | 113
RPMI 5 mM glucose + 10% FBS, 5.12 µM | 94.5 | 97.9 | 101
RPMI 5 mM glucose + 10% FBS, 15.4 µM | 83.7 | 90 | 98
RPMI 5 mM glucose + 10% FBS, 46.1 µM | 82.4 | 89.4 | 57.6
RPMI 5 mM glucose + 10% dialyzed FBS, 0.000781 µM | 99.1 | 101 | 84.8
RPMI 5 mM glucose + 10% dialyzed FBS, 0.00234 µM | 95.1 | 99.1 | 99.1
RPMI 5 mM glucose + 10% dialyzed FBS, 0.00702 µM | 99 | 105 | 103
RPMI 5 mM glucose + 10% dialyzed FBS, 0.0211 µM | 95.7 | 83.9 | 49.8
RPMI 5 mM glucose + 10% dialyzed FBS, 0.0632 µM | 104 | 94.9 | 108
RPMI 5 mM glucose + 10% dialyzed FBS, 0.19 µM | 83.8 | 105 | 99.1
RPMI 5 mM glucose + 10% dialyzed FBS, 0.569 µM | 94.4 | 102 | 83.6
RPMI 5 mM glucose + 10% dialyzed FBS, 1.71 µM | 94.7 | 92.7 | 105
RPMI 5 mM glucose + 10% dialyzed FBS, 5.12 µM | 96.7 | 101 | 87.2
RPMI 5 mM glucose + 10% dialyzed FBS, 15.4 µM | 80.3 | 95 | 82.3
RPMI 5 mM glucose + 10% dialyzed FBS, 46.1 µM | 82.6 | 80 | 55.2

AUC of viability dose-response curve
Settings | NOMO1 [4] | P12-Ichikawa [5] | SEM cells [6]
HPLM + 10% dialyzed FBS | 445 | 467 | 450
RPMI 5 mM glucose + 10% FBS | 449 | 452 | 462
RPMI 5 mM glucose + 10% dialyzed FBS | 447 | 463 | 421
